# Test results published in US8129398B2 (priority 2008, dated 2012).
# Target: T1, HIV-integrase (Human immunodeficiency virus type 1 group M subtype B, UniProt P12497)
# T1 construct: Recombinant integrase (0.26 ng) was incubated with the beads
# Assay: HIV-Integrase Inhibition Activity (SPA bead integration assay with P33 labeled target DNA)
# Format: biochemical
# Details: recombinant integrase, class symbols; read-out: in vitro activity
# Outline: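 Biotinylated substrate DNA on streptavidin SPA beads loaded with recombinant integrase (90 min, 37° C), washed, then inhibitor plus 0.1 fmol P33-labeled target DNA added. Reaction stopped with 10 mM EDTA; integration measured as CPM by scintillation, giving IC50 ranks.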
row,Compound,IC50 [nM]
1,"Cc1cc(CNC(=O)c2nc3n(c(=O)c2O)CC2CCC3(NC(=O)c3cccnc3)CC2)ccc1F [Example 312, 7,10-Ethanopyrimido[1,2-a]azepine-2-carboxamide, N-[(4-fluoro-3-methylphenyl)methyl]-4,6,7,8,9,10-hexahydro-3-hydroxy-4-oxo-10-[(3-pyridinylcarbonyl)amino]-]",< 10
2,"Cc1cc(CNC(=O)c2nc3n(c(=O)c2O)CC2CCC3(NC(=O)c3ccccn3)CC2)ccc1F [Example 313, 7,10-Ethanopyrimido[1,2-a]azepine-2-carboxamide, N-[(4-fluoro-3-methylphenyl)methyl]-4,6,7,8,9,10-hexahydro-3-hydroxy-4-oxo-10-[(2-pyridinylcarbonyl)amino]-]",< 10
3,"O=C(NC12CCC(CC1)Cn1c2nc(C(=O)NCc2ccc(F)cc2)c(O)c1=O)c1cnc2ccccc2c1 [Example 315, 7,10-Ethanopyrimido[1,2-a]azepine-2-carboxamide, N-[(4-fluorophenyl)methyl]-4,6,7,8,9,10-hexahydro-3-hydroxy-4-oxo-10-[(3-quinolinylcarbonyl)amino]-]",< 10
4,"O=C(NC12CCC(CC1)Cn1c2nc(C(=O)NCc2ccc(F)cc2)c(O)c1=O)c1ccnc(OCC(F)(F)F)c1 [Example 316, 7,10-Ethanopyrimido[1,2-a]azepine-2-carboxamide, N-[(4-fluorophenyl)methyl]-4,6,7,8,9,10-hexahydro-3-hydroxy-4-oxo-10-[[[2-(2,2,2-trifluoroethoxy)-4-pyridinyl]carbonyl]amino]-]",< 10
5,"O=C(NC12CCC(CC1)Cn1c2nc(C(=O)NCc2ccc(F)cc2)c(O)c1=O)c1ccnc(N2CCOCC2)c1 [Example 317, 7,10-Ethanopyrimido[1,2-a]azepine-2-carboxamide, N-[(4-fluorophenyl)methyl]-4,6,7,8,9,10-hexahydro-3-hydroxy-10-[[[2-(4-morpholinyl)-4-pyridinyl]carbonyl]amino]-4-oxo-]",< 10
6,"CC(=O)Nc1cc(C(=O)NC23CCC(CC2)Cn2c3nc(C(=O)NCc3ccc(F)cc3)c(O)c2=O)ccn1 [Example 318, 7,10-Ethanopyrimido[1,2-a]azepine-2-carboxamide, 10-[[[2-(acetylamino)-4-pyridinyl]carbonyl]amino]-N-[(4-fluorophenyl)methyl]-4,6,7,8,9,10-hexahydro-3-hydroxy-4-oxo-]",< 10
7,"Cc1cc(CNC(=O)c2nc3n(c(=O)c2O)CC2CCC3(N(C)C(=O)c3cccnc3)CC2)ccc1F [Example 319, 7,10-Ethanopyrimido[1,2-a]azepine-2-carboxamide, N-[(4-fluoro-3-methylphenyl)methyl]-4,6,7,8,9,10-hexahydro-3-hydroxy-10-[methyl(3-pyridinylcarbonyl)amino]-4-oxo-]",< 10
8,"CC(=O)Nc1ccc(C(=O)NC23CCC(CC2)Cn2c3nc(C(=O)NCc3ccc(F)cc3)c(O)c2=O)cn1 [Example 320, 7,10-Ethanopyrimido[1,2-a]azepine-2-carboxamide, 10-[[[6-(acetylamino)-3-pyridinyl]carbonyl]amino]-N-[(4-fluorophenyl)methyl]-4,6,7,8,9,10-hexahydro-3-hydroxy-4-oxo-]",< 10
9,"CC(=O)Nc1cncc(C(=O)NC23CCC(CC2)Cn2c3nc(C(=O)NCc3ccc(F)cc3)c(O)c2=O)c1 [Example 321, 7,10-Ethanopyrimido[1,2-a]azepine-2-carboxamide, 10-[[[5-(acetylamino)-3-pyridinyl]carbonyl]amino]-N-[(4-fluorophenyl)methyl]-4,6,7,8,9,10-hexahydro-3-hydroxy-4-oxo-]",< 10
10,"CN(C(=O)c1cccnc1)C12CCC(CC1)Cn1c2nc(C(=O)NCc2ccc(F)cc2)c(O)c1=O [Example 322, 7,10-Ethanopyrimido[1,2-a]azepine-2-carboxamide, N-[(4-fluorophenyl)methyl]-4,6,7,8,9,10-hexahydro-3-hydroxy-10-[methyl(3-pyridinylcarbonyl)amino]-4-oxo]",< 10
11,"O=C(NC12CCC(CC1)Cn1c2nc(C(=O)NCc2ccc(F)cc2)c(O)c1=O)c1ccc(C(F)(F)F)nc1 [Example 323, 7,10-Ethanopyrimido[1,2-a]azepine-2-carboxamide, N-[(4-fluorophenyl)methyl]-4,6,7,8,9,10-hexahydro-3-hydroxy-4-oxo-10-[[[6-(trifluoromethyl)-3-pyridinyl]carbonyl]amino]-]",< 10
12,"O=C(Nc1ccccn1)NC12CCC(CC1)Cn1c2nc(C(=O)NCc2ccc(F)cc2)c(O)c1=O [Example 324, 7,10-Ethanopyrimido[1,2-a]azepine-2-carboxamide, N-[(4-fluorophenyl)methyl]-4,6,7,8,9,10-hexahydro-3-hydroxy-4-oxo-10-[[(2-pyridinylamino)carbonyl]amino]-]",< 10
13,"Cc1cc(CNC(=O)c2nc3n(c(=O)c2O)CC2CCC3(NC(=O)Nc3ccccn3)CC2)ccc1F [Example 325, 7,10-Ethanopyrimido[1,2-a]azepine-2-carboxamide, N-[(4-fluoro-3-methylphenyl)methyl]-4,6,7,8,9,10-hexahydro-3-hydroxy-4-oxo-10-[[(2-pyridinylamino)carbonyl]amino]-]",< 10
14,"Cc1cc(CNC(=O)c2nc3n(c(=O)c2O)CC2CCC3(NC(=O)Nc3cccnc3)CC2)ccc1F [Example 326, 7,10-Ethanopyrimido[1,2-a]azepine-2-carboxamide, N-[(4-fluoro-3-methylphenyl)methyl]-4,6,7,8,9,10-hexahydro-3-hydroxy-4-oxo-10-[[(3-pyridinylamino)carbonyl]amino]-]",< 10
15,"CNC(=O)NC12CCC(CC1)Cn1c2nc(C(=O)NCc2ccc(F)c(C)c2)c(O)c1=O [Example 327, 7,10-Ethanopyrimido[1,2-a]azepine-2-carboxamide, N-[(4-fluoro-3-methylphenyl)methyl]-4,6,7,8,9,10-hexahydro-3-hydroxy-10-[[(methylamino)carbonyl]amino]-4-oxo-]",< 10
16,"CN(C(=O)N(C)C12CCC(CC1)Cn1c2nc(C(=O)NCc2ccc(F)cc2)c(O)c1=O)c1ccccn1 [Example 328, 7,10-Ethanopyrimido[1,2-a]azepine-2-carboxamide, N-[(4-fluorophenyl)methyl]-4,6,7,8,9,10-hexahydro-3-hydroxy-10-[methyl[(methyl-2-pyridinylamino)carbonyl]amino]-4-oxo-]",10 to 100

row,Compound,IC50 [nM]
1,"Cc1cc(CNC(=O)c2nc3n(c(=O)c2O)CC2CCC3(NC(=O)N(C)c3ccccn3)CC2)ccc1F [Example 329, 7,10-Ethanopyrimido[1,2-a]azepine-2-carboxamide, N-[(4-fluoro-3-methylphenyl)methyl]-4,6,7,8,9,10-hexahydro-3-hydroxy-10-[[(methyl-2-pyridinylamino)carbonyl]amino]-4-oxo-]",< 10
2,"O=C(NC12CCC(CC1)Cn1c2nc(C(=O)NCc2ccc(F)cc2)c(O)c1=O)NS(=O)(=O)c1ccccc1 [Example 330, 7,10-Ethanopyrimido[1,2-a]azepine-2-carboxamide, N-[(4-fluorophenyl)methyl]-4,6,7,8,9,10-hexahydro-3-hydroxy-4-oxo-10-[[[(phenylsulfonyl)amino]carbonyl]amino]-]",< 10
3,"CNC(=S)NC12CCC(CC1)Cn1c2nc(C(=O)NCc2ccc(F)cc2)c(O)c1=O [Example 331, 7,10-Ethanopyrimido[1,2-a]azepine-2-carboxamide, N-[(4-fluorophenyl)methyl]-4,6,7,8,9,10-hexahydro-3-hydroxy-10-[[(methylamino)thioxomethyl]amino]-4-oxo-]",< 10
4,"O=C(NC(=S)NC12CCC(CC1)Cn1c2nc(C(=O)NCc2ccc(F)cc2)c(O)c1=O)c1ccccc1 [Example 332, 7,10-Ethanopyrimido[1,2-a]azepine-2-carboxamide, 10-[[(benzoylamino)thioxomethyl]amino]-N-[(4-fluorophenyl)methyl]-4,6,7,8,9,10-hexahydro-3-hydroxy-4-oxo-]",10 to 100
5,"NC(=S)NC12CCC(CC1)Cn1c2nc(C(=O)NCc2ccc(F)cc2)c(O)c1=O [Example 333, 7,10-Ethanopyrimido[1,2-a]azepine-2-carboxamide, 10-[(aminothioxomethyl)amino]-N-[(4-fluorophenyl)methyl]-4,6,7,8,9,10-hexahydro-3-hydroxy-4-oxo-]",< 10
6,"O=C(NCc1ccc(F)cc1)c1nc2n(c(=O)c1O)CC1CCC2(Nc2ncc[nH]2)CC1 [Example 334, 7,10-Ethanopyrimido[1,2-a]azepine-2-carboxamide, N-[(4-fluorophenyl)methyl]-4,6,7,8,9,10-hexahydro-3-hydroxy-10-(1H-imidazol-2-ylamino)-4-oxo-]",< 10
7,"CN/C(=N\C#N)NC12CCC(CC1)Cn1c2nc(C(=O)NCc2ccc(F)c(C)c2)c(O)c1=O [Example 335, 7,10-Ethanopyrimido[1,2-a]azepine-2-carboxamide, 10-[[(1Z)-(cyanoamino)(methylamino)methylene]amino]-N-[(4-fluoro-3-methylphenyl)methyl]-4,6,7,8,9,10-hexahydro-3-hydroxy-4-oxo-]",< 10
8,CN(C)C(=O)C(=O)NC12CCC(CC1)Cn1c2nc(C(=O)NCCC2CCCN2C)c(O)c1=O (stereo not shown) [Example 336],> 100
9,CN(C)C(=O)C(=O)NC12CCC(CC1)Cn1c2nc(C(=O)NCCCN2CCCC2=O)c(O)c1=O [Example 337],> 100
10,CN(C)C(=O)C(=O)NC12CCC(CC1)Cn1c2nc(C(=O)NCC2CCCO2)c(O)c1=O (stereo not shown) [Example 338],> 100
11,CC(CCc1ccccc1)NC(=O)c1nc2n(c(=O)c1O)CC1CCC2(NC(=O)C(=O)N(C)C)CC1 (stereo not shown) [Example 339],10 to 100
12,CN(C)C(=O)C(=O)NC12CCC(CC1)Cn1c2nc(C(=O)NCC(c2ccccc2)c2ccccc2)c(O)c1=O [Example 340],> 100
13,CC(C)CNC(=O)c1nc2n(c(=O)c1O)CC1CCC2(NC(=O)C(=O)N(C)C)CC1 [Example 341],> 100
14,CN(C)C(=O)C(=O)NC12CCC(CC1)Cn1c2nc(C(=O)NCCNc2ccccc2)c(O)c1=O [Example 342],10 to 100
15,CN(C)C(=O)C(=O)NC12CCC(CC1)Cn1c2nc(C(=O)NCCc2ccccc2)c(O)c1=O [Example 343],10 to 100
